Test results reported in patent US10016424B2, “Method and pharmaceutical composition for use in the treatment of epilepsy” (INSERM (Institut National de la Sante et de la Recherche …, priority 2013, dated 2018).

Experiments:
[1] = biological target: homomeric GluK2 receptors (Homo sapiens, UniProt Q13002); details: cited from earlier work
[2] = test system: dentate gyrus of organotypic slices; experiment: Spontaneous interictal-like activity, extracellular field recordings in pilocarpine-treated organotypic hippocampal slice cultures; format: cell-based, mouse
Protocol: Hippocampal/entorhinal cortex slices (350 μm) were prepared from pre-genotyped GluK2−/− and WT mice (P9-10, FVB/N background) using a McIlwain tissue chopper. Slices were placed on mesh inserts (Millipore # PICMORG50) inside culture dishes containing 1 ml of the following medium: MEM 50%, HS 25%, HBSS 25%, HEPES 15 mM glucose 6.5 mg/ml and insulin 0.1 mg/ml. Culture medium was changed every 2-3 days and slices maintained in an incubator at 37° C./5% CO2. Pilocarpine (0.5 μM) was added to the medium at 5 D.I.V and removed at 7 D.I.V; slices were utilized for experiments from 9 D.I.V.
Cultured or acute slices were individually transferred to a recording chamber maintained at 30-32° C. and continuously perfused (2 ml/min) with oxygenated normal or adapted ACSF containing 5 μM gabazine. Local field potentials were made in the granule cell layer of the DG with glass electrodes (2-3 MΩ; filled with normal ACSF) using a DAM-80 amplifier (low filter, 1 Hz; […], 3 KHz; World Precision Instruments, Sarasota, Fla.). For evoked synaptic transmission, electrical stimulation was performed with a bipolar NiCh electrode (#762000, AM systems). Whole-cell voltage-clamp recordings of DGCs were made using tight-seal electrodes (5-8 MΩ) filled with an internal solution containing the following (in mM): 135 gluconic acid, 135 CsOH, 10 MgCl2, 0.1 CaCl2, 1 EGTA, 10 HEPES, 2 MgATP, 0.4 NaGTP, and 0.5% biocytin, pH 7.25. We used a Multiclamp 700B amplifier (Molecular Devices): data were filtered at 2 kHz, digitized (20 kHz) with a Digidata 1440A (Molecular Devices) to a PC, and acquired using Clampex 10.1 software (PClamp, Molecular Devices). Signals were analyzed off-line using Clampfit 9.2 (PClamp) and MiniAnalysis 6.0.1 (Synaptosoft, Decatur, Ga.). In organotypic slices, spontaneous EPSCs were recorded at the reversal potential for GABAergic currents (Vh=−70 mV). To characterize the nature and kinetic properties of fast and slow events, miniature EPSCs (mEPSCs) evoked in Sr2+ conditions (external Ca2+ was substituted with 1.2 mM Sr2+) were recorded in DGCs from GluK2−/− and WT slices. Electrical stimulation was made in the molecular layer in the continued presence of 5 μM gabazine and 40 μM D-APV; asynchronous mEPSCs were measured during the 300 ms period after the stimulus artifact. […] In cultured slices, visual representation of time-frequency analysis of local field potentials was performed using Autosignal software (Seasolve 1.7). In brief, field activity was highpass-filtered (>100 Hz) and time-frequency analysis performed using a continuous wavelet (Morlet) that reported integrated power (time-integral-squared amplitude, TISA) across time. Filtered traces were also analyzed by Fourier analysis (Hamming) using Clampfit 9.2. In acute hippocampal slices, intensity of antidromically-evoked bursts was quantified using coastline index (Epsztein et al., 2005).
The role of KARs in spontaneous epileptiform activity was then tested using extracellular field recordings in cultured slices. Recordings were performed in 5 mM K+-containing ACSF and in the presence of 5 μM gabazine in order to enhance neuronal excitability and to reliably record stereotyped spontaneous interictal-like activity (Berdichevsky et al., 2012).

[3] = test system: pilocarpine-status epilepticus model of chronic TLE; experiment: Ictal discharges, telemetric intrahippocampal EEG in freely-moving pilocarpine-treated mice; format: in vivo, mouse
Protocol: All experiments were approved by the Institut National de la Santé et de la Recherche Médicale animal care and use committee of May 29, 2001 (2001-464) and the European community council directive of Nov. 24, 1986 (86/609/EEC). Mice (FVB/N background) had access to food and water ad libitum and were housed under a 12 h light/dark cycle at 22-24° C. Male GluK2−/− and WT mice (P60-80) were given scopolamine (1 mg/kg) subcutaneously (s.c.) 15 minutes prior to s.c. administration of pilocarpine (200-600 mg/kg). A ramp protocol was used whereby animals were given an initial dose of 200 mg/kg followed by half-doses every 30 minutes until seizures appeared. Both WT and GluK2−/− mice typically experienced at least two seizures prior to entering status epilepticus (SE). Diazepam (10 mg/kg) was administered 45 minutes after onset of SE.
Naïve wildtype (WT) and pilocarpine-treated WT or GluK2−/− mice (5-6 months old) were anaesthetized with xylazine 13 mg/kg/ketamine 66 mg/kg and placed in a stereotaxic frame (supplemental dosing was administered as required). Body temperature was maintained using a heating pad. […] After a 4 day recovery, EEG (amplified (1000×), filtered at 0.16-97 Hz pass, acquired at 500 Hz) was monitored using a telemetric system (Data Sciences International, St. Paul, Minn.) for 4 days, 24 h per day. […]

[4] = slices from WT mice, 10 μM SYM2081 or 5 μM UBP310

homomeric GluK2 receptors, sequence (Q13002 32-908): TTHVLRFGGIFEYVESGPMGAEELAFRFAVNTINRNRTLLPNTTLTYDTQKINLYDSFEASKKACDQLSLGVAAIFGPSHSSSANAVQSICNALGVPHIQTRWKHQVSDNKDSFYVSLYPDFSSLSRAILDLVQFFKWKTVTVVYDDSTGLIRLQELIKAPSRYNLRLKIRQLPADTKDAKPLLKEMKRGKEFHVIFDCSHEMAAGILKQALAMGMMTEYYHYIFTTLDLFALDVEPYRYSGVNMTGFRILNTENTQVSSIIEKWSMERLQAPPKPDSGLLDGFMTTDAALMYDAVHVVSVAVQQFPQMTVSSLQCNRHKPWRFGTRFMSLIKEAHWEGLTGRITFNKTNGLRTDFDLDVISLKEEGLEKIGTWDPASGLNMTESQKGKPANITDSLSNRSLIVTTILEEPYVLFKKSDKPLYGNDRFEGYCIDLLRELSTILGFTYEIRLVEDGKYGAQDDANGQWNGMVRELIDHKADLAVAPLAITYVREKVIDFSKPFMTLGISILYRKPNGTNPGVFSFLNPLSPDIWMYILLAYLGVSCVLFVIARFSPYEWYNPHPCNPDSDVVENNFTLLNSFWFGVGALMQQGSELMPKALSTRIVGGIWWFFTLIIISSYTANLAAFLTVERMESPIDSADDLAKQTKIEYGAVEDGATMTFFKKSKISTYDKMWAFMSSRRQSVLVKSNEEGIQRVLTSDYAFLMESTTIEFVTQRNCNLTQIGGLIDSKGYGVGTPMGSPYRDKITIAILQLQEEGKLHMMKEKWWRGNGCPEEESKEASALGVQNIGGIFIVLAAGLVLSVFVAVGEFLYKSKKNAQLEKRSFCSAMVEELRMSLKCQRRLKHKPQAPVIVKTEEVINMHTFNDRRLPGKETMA

## Cc1cn(C[C@H](N)C(=O)O)c(=O)n(Cc2ccsc2C(=O)O)c1=O [UBP310]
[1]
  inhibition of homomeric GluK2 receptors: not homomeric GluK2 receptors
[2]; GluK2-/- slices, P=0.563, n=7
  effect on interictal-like activity in GluK2-/- mice slices: no effect
[2]; [4]
  alteration of the PD phase (power of paroxysmal discharge): No significant alteration
  reduction of power of the bursts in the late MB phase: 67%
[2]; slices from WT mice, 10 μM SYM2081 or 5 μM UBP310, 5 mM K+ ACSF, 5 μM gabazine
  reduction of frequency of interictal-like activity: 49%
[2]; slices from WT mice, 10 μM SYM2081 or 5 μM UBP310, without antagonist 3.2±0.4, mean±SEM
  frequency of interictal-like activity: 1.47±0.4 events/min
[3]; 60 mg/kg intraperitoneal for 3 days, P=0.286
  change in duration of ictal events: without a significant change
[3]; 60 mg/kg intraperitoneal twice a day for 3 days, WT epileptic mice, freely moving
  reduction of number of ictal events: 41%
